From a melting point compilation (Tetko et al.)

Details: a range is the spread between reports

Row | Compound | melting point [°C]
1 | O=Cc1ccc[nH]1 | 43 to 46.5
2 | Brc1c(Br)c(Br)c(Oc2c(Br)c(Br)c(Br)c(Br)c2Br)c(Br)c1Br | 305 to 306
3 | O=C1CCCCCN1 | 69 to 70
4 | Cc1ccccc1CBr | 19 to 21
5 | Cc1cc(Cl)nc(Cl)c1C#N | 110 to 113
6 | Nc1cc(Cl)ccc1Cl | 48 to 50
7 | C#C | -80.8 to -80.7
8 | N#Cc1c[nH]c2ccccc12 | 180
9 | c1ccc2c(c1)c1ccccc1c1ccccc21 | 196 to 199
10 | O=Cc1ccc2ccccc2c1 | 61 to 62
11 | CC12CCC3C(CCC4(C)CC5(CCC34C)OCCO5)C1CCC2=O (stereo not given) | 158 to 159
12 | CI | -67 to -64
13 | c1ccc(-c2cnc(-c3ccccc3)o2)cc1 | 72 to 74
14 | CCCCCl | -123
15 | Oc1cccc(C(F)(F)F)c1 | -2 to -1.8
16 | C=Cc1ccc(F)cc1 | -36 to -34.5
17 | CC(=O)/C=C/c1ccccc1 | 40 to 42
18 | O=CC1CCCCC1 | 34.5 to 35
19 | CC=C1CCCC1 | -130
20 | Oc1c(Br)c(Br)c(Br)c(Br)c1Br | 226 to 230
21 | O=CC=Cc1ccco1 | 51 to 54

Row | Compound | melting point [°C]
22 | Oc1ccccc1-c1ccccc1 | 56 to 60
23 | c1ccc2ncncc2c1 | 47 to 48
24 | Clc1cc(Cl)c(Cl)nc1Cl | 90.5 to 91
25 | O=[N+]([O-])c1cccc([N+](=O)[O-])c1Cl | 86 to 88
26 | CC(=O)Cl | -113 to -112
27 | COc1cc(-c2ccc(N)c(OC)c2)ccc1N | 136 to 137
28 | OCc1ccc2c(c1)OCO2 | 53 to 58
29 | CC(=O)CC(C)C | -84 to -80
30 | Clc1ccc(Cl)cc1 | 52.1 to 55
31 | COc1cc(OC)c(OC)cc1C=O | 113 to 114
32 | Cc1cc2ccccc2cn1 | 63 to 68
33 | O=C1C(=O)c2ccccc2-c2ccccc21 | 206 to 210
34 | N#Cc1ccccc1N | 47 to 51
35 | O=c1c(-c2ccccc2)c1-c1ccccc1 | 119 to 120
36 | c1cnc2c(c1)ccc1cccnc12 | 117 to 118
37 | Cc1ccc(N=C=O)cc1N=C=O | 20 to 21
38 | O=C1C=C(Cl)C(=O)C=C1Cl | 160 to 162
39 | Fc1ccc(-c2ccccc2)cc1 | 74 to 74.2
40 | O=C(O)c1ccc(CBr)cc1 | 225 to 230
41 | c1ccc(CSc2ccccc2)cc1 | 41 to 43.5
42 | CCc1ccc2ccccc2c1 | -7.45 to -7.35

Row | Compound | melting point [°C]
43 | ClCBr | -88 to -87.9
44 | Nc1cccc([N+](=O)[O-])c1 | 112 to 114
45 | Oc1c(F)c(F)c(F)c(F)c1F | 32.8 to 35
46 | O=[N+]([O-])c1ccc(O)c(Cl)c1 | 106 to 110
47 | FC(F)(F)c1ccccc1 | -29.1 to -27
48 | S=C=Nc1ccc(Cl)cc1 | 45 to 46
49 | Nc1cccnc1 | 61 to 64.5
50 | O=[N+]([O-])c1cc(S(=O)(=O)c2ccc(F)c([N+](=O)[O-])c2)ccc1F | 194
51 | Cc1ccccc1 | -95 to -93
52 | BrCC(Br)CBr | 16 to 17
53 | CCCCCCCCCl | -58 to -57.8
54 | Oc1ccccn1 | 107 to 108
55 | O=C(O)CC[N+](=O)[O-] | 62 to 64
56 | C1CCOC1 | -108
57 | c1ccc(-c2ccc3ccccc3n2)cc1 | 83 to 86
58 | Cc1cccc([N+](=O)[O-])c1 | 15.5 to 16
59 | O=[N+]([O-])c1ccc(CCl)cc1 | 71 to 73
60 | C1COCCN1 | -5 to -4.8
61 | COc1ccc(Cl)c(Cl)c1Cl | 69 to 70
62 | O=S(=O)(Cl)c1cccs1 | 28 to 30
63 | O=[N+]([O-])c1ccccc1I | 50 to 54

Row | Compound | melting point [°C]
64 | N#CC(Cl)(Cl)Cl | -44 to -42
65 | C#CC1(O)CCCC1 | 25 to 27
66 | O=C(O)c1ccc([N+](=O)[O-])cc1[N+](=O)[O-] | 181 to 182
67 | O=c1ccc2ccccc2o1 | 70 to 71
68 | O=C(O)C(F)(F)C(F)(F)C(=O)O | 115 to 119
69 | Cc1ccc(N)nc1 | 76 to 76.5
70 | Oc1cccc2cccnc12 | 74 to 76
71 | O=[N+]([O-])c1ccc(Oc2ccc(Cl)cc2Cl)cc1 | 70 to 70.5
72 | COc1ccc(N)cc1 | 57 to 59
73 | Clc1cccs1 | -72 to -71.9
74 | Clc1nc(Cl)nc(Nc2ccccc2Cl)n1 | 160
75 | c1ccc(-c2ccc(-c3ccccc3)cc2)cc1 | 210 to 214
76 | O=C(Cl)c1ccccc1Br | 10 to 11
77 | c1ccc(-c2nnc(-c3ccccc3)o2)cc1 | 139 to 140
78 | NNc1c(F)c(F)cc(F)c1F | 89 to 92
79 | C=Cc1cccc([N+](=O)[O-])c1 | -10 to -5
80 | Clc1ccc(Br)cc1Cl | 24 to 25
81 | FC(F)(F)c1ccc(Cl)cc1 | -36 to -33

Second part, the compound after the results:

Row | melting point [°C] | Compound
82 | 15 to 16.1 | Oc1ccccc1F
83 | 5 to 6.1 | CC12CCC(C1)C(C)(C)C2=O (stereo not given)
84 | 49 to 51.5 | Cc1ccc(C(C)C)c(O)c1
85 | -20 to -16 | CC(C)(C)Br
86 | 42 to 43 | O=C(Oc1ccccc1)c1ccccc1O
87 | 118 to 119 | OCc1ccc(CO)cc1
88 | 159 to 160 | O=C(O)Cc1c(Cl)cccc1Cl
89 | -113 | CCC(C)(C)CC(C)C
90 | 1 to 2 | Cc1ccc(C(C)C)cc1O
91 | 148 | NNC(=O)c1ccccc1O
92 | 109 to 111 | CC(=O)C1C(=O)C=C(C)OC1=O (stereo not given)
93 | 174 to 177 | O=C(c1ccc(Br)cc1)c1ccc(Br)cc1
94 | 74 to 75 | CN(C)c1ccc(C=O)cc1
95 | -74.4 to -74 | CC1(C)CC=CCC1
96 | 66 to 71 | CN1C(=O)CCC1=O
97 | 53 to 53.2 | Cc1ccc([N+](=O)[O-])c(F)c1
98 | 91 to 93.5 | CN(C)Cc1cc(C(C)(C)C)c(O)c(C(C)(C)C)c1
99 | 198 to 199 | CN1C(=C(O)Nc2ccccn2)C(=O)c2ccccc2S1(=O)=O
100 | 42 to 44 | CC(C)[C@@H]1CC[C@@H](C)C[C@H]1O
101 | 132 to 134 | Oc1ccc2ccccc2c1/N=N/c1ccccc1
102 | -103 | C=C(C)CCCC

Row | melting point [°C] | Compound
103 | -60.3 to -60 | CCCc1ccccc1C
104 | 55 to 57 | CCCCCCCCCCCCCCCCCC(C)=O
105 | 48.5 to 49 | COC(=O)c1cc(Cl)ccc1[N+](=O)[O-]
106 | -73.2 to -73 | CCCCCOC(=O)CCC
107 | 237 to 242 | O=C(O)c1ccc([N+](=O)[O-])cc1
108 | 146 | O=C(C=Cc1cccc([N+](=O)[O-])c1)c1ccccc1
109 | -120 to -119 | C=CCCCCC
110 | 118 to 120 | CC(C)(Oc1ccc(Cl)cc1)C(=O)O
111 | 5 to 5.2 | CCCCCCCCCCCC(=O)OC
112 | 184 to 186 | COc1cc(OC)cc(C(=O)O)c1
113 | -93 to -92.9 | C=C(C)OC(C)=O
114 | 127 | O=C(O)CCCC(=O)c1ccccc1
115 | 39 to 40 | O=C(c1ccccc1)c1ccccc1O
116 | 214 to 215 | O=C(O)c1cc(-c2ccccc2)nc2ccccc12
117 | 39 to 39.5 | CCCCCCCCCCCCCC(C)=O
118 | 79 to 81 | CC(N)=O
119 | 147 to 148 | NC(=O)c1c(F)c(F)c(F)c(F)c1F
120 | 61.5 to 62 | COc1ccc(C(=O)c2ccccc2)cc1
121 | 72 to 73.5 | CCS(=O)(=O)CC
122 | 143 to 144 | Nc1cc([N+](=O)[O-])ccc1O
123 | 189 to 194 | CC(=O)c1c[nH]c2ccccc12

Row | melting point [°C] | Compound
124 | 55 to 57 | CCCCCCCCCCCCCCCCCC(=O)OC[C@@H](O)[C@H]1OC[C@H](O)[C@H]1O
125 | -143 | CCC1CCC1
126 | -23 to -18 | CCCCCCCN
127 | 94 to 98 | CC1(C)OC(=O)CC(=O)O1
128 | -142 to -141 | C=CCC(C)CC (stereo not given)
129 | 37 to 39 | CCOc1ccc(C(C)=O)cc1
130 | -73.9 to -73 | CCOC(=O)CC
131 | 170 to 172 | NC(=O)c1ccc([N+](=O)[O-])cc1Cl
132 | 66 to 69.8 | COc1ccccc1CC#N
133 | -122 | CCC(C(C)C)C(C)C
134 | 303 to 307 | CCCC(N)C(=O)O (racemic)
135 | -100 to -99 | COC=O
136 | 229 to 234 | O=C(O)c1ccccc1-c1ccccc1C(=O)O
137 | 71 to 75 | Cc1cc(C)cc([N+](=O)[O-])c1
138 | 208 | O=[N+]([O-])c1ccc2nc[nH]c2c1
139 | 90 to 91 | CC(=O)OC(OC(C)=O)c1ccc([N+](=O)[O-])o1
140 | 109 to 113 | OCc1cc(Br)ccc1O
141 | 8.5 to 11.1 | NCCN
142 | -149 | CCC1CC1
143 | 36 to 36.3 | O=C(Cl)c1cc(C(=O)Cl)cc(C(=O)Cl)c1
144 | 8.5 to 9 | CCOC(=O)c1cccnc1

Row | melting point [°C] | Compound
145 | 98 to 100 | O=C(O)c1cc(F)c(F)cc1F
146 | 99 to 100 | CCC(=O)c1ccc(O)cc1O
147 | 71 to 73 | OCc1cccc(O)c1
148 | -90 to -89.5 | CCOC(=O)C(C)(C)C
149 | 146 to 149 | O=S(=O)(Cc1ccccc1)c1ccccc1
150 | 260 to 262 | O=C1OC(c2ccc(O)cc2)(c2ccc(O)cc2)c2ccccc21
151 | -134 | C=C(C)C(C)CC (stereo not given)
152 | 200 to 201 | CCc1nnc(N)s1
153 | 85 to 86 | CC(=O)CC(=O)Nc1ccccc1
154 | 56 to 59 | CC(=O)CC(=O)c1ccccc1
155 | 327 to 330 | CC1=NS(=O)(=O)c2cc(Cl)ccc2N1
156 | -64 to -63.6 | CCCc1ccc(C)cc1
157 | 49 to 51 | COc1ccc(C(C)=O)cc1OC
158 | -88 to -87.5 | CCC(=O)OC
159 | -124 | C=C(C)CC(C)C
160 | 141 to 142 | O=C(O)c1cccc([N+](=O)[O-])c1
161 | -74.1 to -74 | CCc1cc(C)cc(CC)c1
162 | 142 to 143 | NC(=O)c1ccccc1Cl
163 | 14.5 to 15 | CCCCCC(=O)CCCCC
164 | 18 to 21 | O=C(OCc1ccccc1)c1ccccc1
165 | 68 to 71 | Cc1cc(Cl)c(C)cc1Cl
